A short description of data set [1]: Kinetic solubility in HEPES buffer containing 5% DMSO at pH 8 incubated for 20 hrs by NMR analysis. The data set is classed as physicochemical. To be noted: read-out: Kinetic_solubility.
A short description of data set [2]: Kinetic solubility in PBS buffer containing 1% DMSO at pH 7.4 incubated for 2 hrs by HPLC analysis. The data set is classed as physicochemical. The settings on record: read-out: Kinetic_solubility.
A short description of data set [3]: Metabolic stability in CD-1 mouse liver microsomes assessed as intrinsic clearance at 1 uM measured upt0 30 mins by LC-MS/MS analysis. The settings on record: 0.5 h. The data set is classed as ADME, Microsome. In general terms: Liver microsomes are vesicles of endoplasmic reticulum, rich in cytochrome P450 enzymes.
Another data set has as its system SUD4. The data set can be described thus: Antiproliferative activity agianst human SUDHL4 cells assessed as growth inhibition incubated for 14 days by CellTiter Glo reagent based assay. In kind it is functional. The settings on record: SU-DHL-4, […]. Background: In ATP-based viability assays light output follows the ATP content of the culture.
The test system of the next data set is OCI-Ly1. The data set can be described thus: Antiproliferative activity agianst human OCI-LY1 cells assessed as growth inhibition incubated for 14 days by CellTiter Glo reagent based assay.
The test system of the next data set is OCI-Ly3. The experiment in a line: Antiproliferative activity agianst human OCI-LY3 cells assessed as growth inhibition incubated for 14 days by CellTiter Glo reagent based assay.
Data set [4] can be described thus: Cmax in SCID mouse at 5 mg/kg, po measured upto 24 hrs by LC/MS-MS analysis. The settings on record: in vivo. In kind it is ADME, organism-based. Also on record: dose 5 mg/kg, route oral.
A short description of data set [5]: AUC (0 to 10 hrs) in SCID mouse at 5 mg/kg, po measured upto 10 hrs by LC/MS-MS analysis. In kind it is ADME, organism-based. Also noted: time < 10 hr, dose 5 mg/kg, route oral. The settings on record: in vivo.
The nature of data set [6]: Cmax in SCID mouse at 15 mg/kg, po measured upto 24 hrs by LC/MS-MS analysis. The data set is classed as ADME, organism-based. Also on record: dose 15 mg/kg, route oral. To be noted: in vivo.
Data set [7] can be described thus: AUC (0 to 10 hrs) in SCID mouse at 15 mg/kg, po measured upto 10 hrs by LC/MS-MS analysis. In kind it is ADME, organism-based. Also on record: dose 15 mg/kg, time < 10 hr, route oral. The settings on record: in vivo.
A short description of data set [8]: Cmax in SCID mouse at 50 mg/kg, po measured upto 24 hrs by LC/MS-MS analysis. The data set is classed as ADME, organism-based. Also noted: dose 50 mg/kg, route oral. To be noted: in vivo.
A short description of data set [9]: AUC (0 to 10) hrs in SCID mouse at 50 mg/kg, po measured upto 10 hrs by LC/MS-MS analysis. Also on record: dose 50 mg/kg, time < 10 hr, route oral. To be noted: in vivo. The data set is classed as ADME, organism-based.
A short description of data set [10]: Protein binding in SCID mouse plasma assessed as unbound fraction. In kind it is ADME, cell-free.
Data set [11] in a line: Plasma concentration in SCID mouse. The data set is classed as ADME, cell-free.
A short description of data set [12]: Drug level in SCID mouse blood. The data set is classed as ADME, tissue-based. To be noted: read-out: Ct.
In data set [13] the test system is Mus musculus. The experiment in a line: In vivo inhibition of BCL6 in SCID mouse xenografted with human OCI-LY1 cells assessed as reduction in BCL6 level at 15 mg/kg, po measured upto 10 hrs by Western blot analysis. In kind it is functional, organism-based. In general terms: A xenograft is tissue or cells of one species grown in another, often human tumour cells in immunodeficient mice.

Data set [14] can be described thus: Toxicity in SCID mouse xenografted with human OCI-LY1 cells assessed as adverse effect at 15 mg/kg, po observed for 24 hrs. To be noted: in vivo. The data set is classed as organism-based.
The test system of data set [15] is Mus musculus. The experiment in a line: In vivo inhibition of BCL6 in SCID mouse xenografted with human OCI-LY1 cells assessed as reduction in BCL6 level at 15 mg/kg, po measured at 12 and 16 hrs by Western blot analysis. The data set is classed as functional, organism-based.
The nature of data set [16]: Lipophilicity, log D of compound at pH 7.4. In kind it is physicochemical. The settings on record: buffer.
Data set [17] can be described thus: in vivo. To be noted: SCID, mouse, po, 5 mg/kg.
Data set [18] in a line: in vivo. The settings on record: SCID, mouse, po, 15 mg/kg.
Data set [19] in a line: in vivo. The settings on record: SCID, mouse, po, 50 mg/kg.
Data set [20] has as its target T1, B-cell lymphoma 6 protein (Homo sapiens, UniProt P41182).
Description: Inhibition of recombinant His-tagged human BCL6 expressed in Escherichia coli BL21 AI cell incubated for 2 hrs by TR-FRET assay
Data set [21] addresses T1, B-cell lymphoma 6 protein. To be noted: oci-ly1.
Description: Induction of BCL6 degradation in human OCI-LY1 cells incubated for 2 hrs by MSD electrochemiluminescent immunoassay
Data set [22] deals with T1, B-cell lymphoma 6 protein. The source holds these as a separate data set.
Description: Induction of BCL6 degradation in human KARPAS422 cells incubated for 2 hrs by MSD electrochemiluminescent immunoassay
The target of the next data set is BCL-6/NCOR2 (Homo sapiens, UniProt P41182).
In data set [23] the target is T1, B-cell lymphoma 6 protein. This is another data set of the same source.
Description: Induction of BCL6 degradation in human SUDHL-4 cells incubated for 2 hrs by immunofluorescence analysis
The nature of data set [24]: Permeability of compound by PAMPA assay. The data set is classed as ADME.
Data set [25] deals with T1, B-cell lymphoma 6 protein. The data set can be described thus: Induction of BCL6 degradation in human SUDHL-4 cells incubated for 4 hrs by Western blot analysis. In kind it is cell-based.
For data set [26], the target named is T1, B-cell lymphoma 6 protein. The experiment in a line: Induction of BCL6 degradation in human OCI-LY1 cells incubated for 4 hrs by Western blot analysis. In kind it is cell-based.

This is an account of results in ChEMBL document CHEMBL4342505, “Achieving In Vivo Target Depletion through the Discovery and Optimization of Benzimidazolone BCL6 Degraders” (J Med Chem, 2020).

≈ marks a conversion by molar mass, not a printed value. Calls of active or inactive are those of the source. The calls are words filed in the database; no cut-off is given here. Some results are limits rather than exact numbers.

As a reminder, the GI50 is the concentration that inhibits growth by half. For orientation: Cmax means the maximum level reached in the sampled fluid or tissue. One may read the AUC(0-t) as the area under the concentration-time curve up to a stated or last time point. A high value points to more exposure. A word on the AUC: it is concentration integrated over time. A high value points to more exposure. The term fraction unbound denotes the share of the substance not bound to proteins or other matrix. The term logD denotes the decadic logarithm of the distribution of all forms, ionised or not, between an organic phase and buffer at a given pH. Lower therefore signals a more hydrophilic compound. The Tmax is the time from dosing to the highest level. Broadly, the IC50 is the point on the concentration scale where inhibition reaches its midpoint. Read a low IC50 as higher potency.

Description for BCL-6/NCOR2: Inhibition of recombinant human Nanoluc-tagged BCL6/Halo-tagged SMRT transfected in human HEK293T cells assessed as reduction in BCL6/SMRT interaction incubated for 6 hrs by NANOBRET assay

As to `C[C@@H]1CN(c2ncc(Cl)c(Nc3ccc4c(c3)n(CCC(C)(C)O)c(=O)n4C)n2)C[C@H](C)C1(F)F`, in data set [1], the solubility kinetic at 20 h amounted to 11 µM (≈ 5.6 µg/mL). Further, in data set [2], the solubility kinetic at 2 h was determined as 8 µM (≈ 4.07 µg/mL). Also, in data set [3], the CLH came to 78 µL/min/mg. Moreover, the figures for the concentration for 50% growth inhibition (GI50) in the data set on SUD4, in the data set on OCI-Ly1 and with OCI-Ly3 were 92 nM, 35 nM and 1600 nM, respectively. The highest concentration (Cmax) in data set [4] is 1870 to 2040 nM; in data set [6], 6680 to 6930 nM; in data set [8], 5320 to 6210 nM. Also, the AUC(0-t) at 10 h was 11.6 to 13.1 µM·h in [5] and 48.2 to 49.3 µM·h in data set [7]. This compound also gave an AUC at 10 h in data set [9] of 47.4 to 56.3 µM·h. The fraction unbound in [10] came out at 0.0007. Besides, the concentration was determined as 1500 nM in data set [11] and 2800 nM in data set [12]. In the data set with Mus musculus [13], the inhibition result was “Active”. The Activity entry in data set [14] was “Non-Toxic”. In the data set with Mus musculus [15], the inhibition entry was “inactive”. Besides, in data set [16], the logD came out at 4.3. Moreover, the time to peak (Tmax) at 24 h in “in vivo [17]” fell in the range of 0.5 to 1 h; in the data set “in vivo [18]” it was 0.5 to 2 h; in “in vivo [19]”, 2 to 6 h.

As for `CCC(C#N)Cn1c(=O)n(C)c2ccc(Nc3ccnc(Cl)c3C#N)cc21` (configuration not stated), in data set [1], the solubility kinetic at 20 h is below 30 µM. For the same compound, the solubility kinetic at 2 h in data set [2] was found to be 9.2 µM (≈ 3.5 µg/mL).

On to `Cn1c(=O)n(CCC(C)(C)O)c2cc(Nc3nc(N4CCC(F)(F)C(CO)C4)ncc3Cl)ccc21` (configuration not stated), for which the solubility kinetic at 20 h in [1] was determined as 294 µM (≈ 150 µg/mL). Also, the figures for the GI50 with SUD4, in the data set with OCI-Ly1 and in the data set with OCI-Ly3 were 410 nM, 500 nM and 2900 nM, respectively. The compound also showed a logD in data set [16] of 2.5.

Turning to `Cn1c(=O)n(CCC(C)(C)O)c2cc(Nc3ccnc(Cl)c3C#N)ccc21`, the solubility kinetic at 20 h in data set [1] was below 30 µM. For the same compound, the solubility kinetic at 2 h in [2] is 25 µM (≈ 9.65 µg/mL).

Turning to `Cn1c(=O)n(CCC(C)(C)O)c2cc(Nc3nc(N4CCC(F)(F)CC4)ncc3Cl)ccc21`, the solubility kinetic at 20 h in data set [1] stood at 66 µM (≈ 31.7 µg/mL). Besides, the CLH in data set [3] was 36 µL/min/mg. For the same compound, the GI50 in the data set on OCI-Ly1 was found to be 500 nM; in the data set with OCI-Ly3, 2600 nM. The compound also yielded a logD in [16] of 3.4. Also, in [20], 310 nM corresponded to half-maximal inhibition (IC50). The figures for the DC50 in data set [21] and in [22] were 180 nM and 290 nM, respectively.

Regarding `C[C@@H]1CN(c2ncc(Cl)c(Nc3ccc4c(c3)n(CCC(C)(C)O)c(=O)n4C)n2)C[C@H](C)O1`, in data set [1], the solubility kinetic at 20 h was below 30 µM. In data set [2], the solubility kinetic at 2 h was found to be 95 µM (≈ 45.1 µg/mL). In addition, the CLH in data set [3] was 104 µL/min/mg. Moreover, the IC50 in data set [20] stood at 150 nM; at BCL-6/NCOR2, 1760 nM. In data set [23], the DC50 is above 10000 nM.

With `Cn1c(=O)n(C)c2cc(Nc3ccnc(Cl)c3C#N)ccc21`, in data set [1], the solubility kinetic at 20 h was below 30 µM. The solubility kinetic at 2 h in [2] turned out to be 16 µM (≈ 5.02 µg/mL).

Take `C[C@@H]1C[C@H](C)CN(c2ncc(Cl)c(Nc3ccc4c(c3)n(CCC(C)(C)O)c(=O)n4C)n2)C1`: in data set [1], the solubility kinetic at 20 h was below 30 µM. Also, in data set [2], the solubility kinetic at 2 h was 6 µM (≈ 2.84 µg/mL). Besides, in data set [24], the permeability stood at 36 ×10⁻⁶ cm/s. Moreover, the Activity entry in data set [25] and in [26] was “Dose-dependent effect” in each case. In addition, the CLH in data set [3] is 2440 µL/min/mg. Also, the 50% growth inhibitory concentration (GI50) in the data set on SUD4 was determined as 350 nM; in the data set with OCI-Ly1, 280 nM; in the data set with OCI-Ly3, 3100 nM. Besides, the logD in [16] is on record as 4.7.
